# Reference: ChEMBL document CHEMBL1157036, “QSPR modeling of octanol/water partition coefficient of antineoplastic agents by balance of correlations” (Eur J Med Chem, 2010)
# Test: not given
# Conditions: octanol/water
row,Compound,logP
1,CN(C)/N=N/c1[nH]cnc1C(N)=O [DACARBAZINE],-1.6
2,Nc1nc2[nH]cc(CCc3ccc(C(=O)N[C@@H](CCC(=O)O)C(=O)O)cc3)c2c(=O)[nH]1 [PEMETREXED],-1.5
3,CC[C@]1(O)C[C@@H]2CN(CCc3c([nH]c4ccccc34)[C@@](C(=O)OC)(c3cc4c(cc3OC)N(C)[C@H]3[C@@](O)(C(=O)OC)[C@H](OC(C)=O)[C@]5(CC)C=CCN6CC[C@]43[C@@H]65)C2)C1 [VINBLASTINE],3.9
4,COc1cc([C@@H]2c3cc4c(cc3[C@@H](O[C@@H]3O[C@@H]5CO[C@@H](c6cccs6)O[C@H]5[C@H](O)[C@H]3O)[C@H]3COC(=O)[C@H]23)OCO4)cc(OC)c1O [TENIPOSIDE],1.5
5,Cn1nnc2c(C(N)=O)ncn2c1=O [TEMOZOLOMIDE],-2.8

# Test: physchem
# Conditions: octanol/water
# Description: Octanol-water partition coefficient, log P of the compound
row,Compound,logP
1,CS(=O)(=O)OCCCCOS(C)(=O)=O [BUSULFAN],-0.3
2,Cc1nc2ccc(CN(C)c3ccc(C(=O)N[C@@H](CCC(=O)O)C(=O)O)s3)cc2c(=O)[nH]1 [RALTITREXED],-1.2
3,Nc1nc(F)nc2c1ncn2[C@@H]1O[C@H](CO)[C@@H](O)[C@@H]1O [FLUDARABINE],-2.8
4,O=c1[nH]cc(F)c(=O)[nH]1 [FLUOROURACIL],-0.8
5,COc1cccc2c1C(=O)c1c(O)c3c(c(O)c1C2=O)C[C@@](O)(C(C)=O)C[C@@H]3O[C@H]1C[C@H](N)[C@H](O)[C@H](C)O1 [DAUNORUBICIN],0.1
6,C=C(c1ccc(C(=O)O)cc1)c1cc2c(cc1C)C(C)(C)CCC2(C)C [BEXAROTENE],6.9
7,CC[C@]1(O)C[C@@H]2CN(CCc3c([nH]c4ccccc34)[C@@](C(=O)OC)(c3cc4c(cc3OC)N(C)[C@H]3[C@@](O)(C(N)=O)[C@H](O)[C@]5(CC)C=CCN6CC[C@]43[C@@H]65)C2)C1 [VINDESINE],2.9
8,O=P1(NCCCl)OCCCN1CCCl (configuration not stated) [IFOSFAMIDE],0.8
9,Nc1nc(Cl)nc2c1ncn2[C@@H]1O[C@H](CO)[C@@H](O)[C@@H]1F [CLOFARABINE],0
10,CCCCC(=O)OCC(=O)[C@]1(O)Cc2c(O)c3c(c(O)c2[C@@H](O[C@H]2C[C@H](NC(=O)C(F)(F)F)[C@H](O)[C@H](C)O2)C1)C(=O)c1c(OC)cccc1C3=O [VALRUBICIN],2.2
11,O=C(CCBr)N1CCN(C(=O)CCBr)CC1 [PIPOBROMAN],1.1
12,CC(=O)[C@]1(O)Cc2c(O)c3c(c(O)c2[C@@H](O[C@H]2C[C@H](N)[C@H](O)[C@H](C)O2)C1)C(=O)c1ccccc1C3=O [IDARUBICIN],0.2
13,CC(=O)O[C@H]1C(=O)[C@@]2(C)[C@H]([C@H](OC(=O)c3ccccc3)[C@]3(O)C[C@H](OC(=O)[C@H](O)[C@@H](NC(=O)c4ccccc4)c4ccccc4)C(C)=C1C3(C)C)[C@]1(OC(C)=O)CO[C@@H]1C[C@@H]2O [PACLITAXEL],3
14,NCC(=O)CCC(=O)O [AMINOLEVULINIC ACID],-1.5
15,CN(C)c1nc(N(C)C)nc(N(C)C)n1 [ALTRETAMINE],1.7
16,CN(Cc1cnc2nc(N)nc(N)c2n1)c1ccc(C(=O)N[C@@H](CCC(=O)O)C(=O)O)cc1 [METHOTREXATE],-2.2
17,COc1cc(NS(C)(=O)=O)ccc1Nc1c2ccccc2nc2ccccc12 [AMSACRINE],3.8
18,O=C(O)CCCc1ccc(N(CCCl)CCCl)cc1 [CHLORAMBUCIL],3.9
19,N[C@@H](Cc1ccc(N(CCCl)CCCl)cc1)C(=O)O,0.4

row,Compound,logP
1,CN(N=O)C(=O)N[C@@H](C=O)[C@@H](O)[C@H](O)[C@H](O)CO [STREPTOZOCIN],-1.7
2,CCC1=C[C@@H]2CN(C1)Cc1c([nH]c3ccccc13)[C@@](C(=O)OC)(c1cc3c(cc1OC)N(C)[C@H]1[C@@](O)(C(=O)OC)[C@H](OC(C)=O)[C@]4(CC)C=CCN5CC[C@]31[C@@H]54)C2 [VINORELBINE],4
3,CC[C@@]1(O)C(=O)OCc2c1cc1n(c2=O)Cc2cc3c(CN(C)C)c(O)ccc3nc2-1 [TOPOTECAN],0.8
4,COc1cccc2c1C(=O)c1c(O)c3c(c(O)c1C2=O)C[C@@](O)(C(=O)CO)C[C@@H]3O[C@H]1C[C@H](N)[C@@H](O)[C@H](C)O1 [EPIRUBICIN],-0.5
5,COC(=O)CCC(=O)CN [METHYL AMINOLEVULINATE],-1.2
6,Cc1ccc(-c2cc(C(F)(F)F)nn2-c2ccc(S(N)(=O)=O)cc2)cc1 [CELECOXIB],3.9
7,O=P1(N(CCCl)CCCl)NCCCO1 (configuration not stated) [CYCLOPHOSPHAMIDE ANHYDROUS],0.8
8,COc1cccc2c1C(=O)c1c(O)c3c(c(O)c1C2=O)C[C@@](O)(C(=O)CO)C[C@@H]3O[C@H]1C[C@H](N)[C@H](O)[C@H](C)O1 [DOXORUBICIN],-0.5
9,O=C1CN2Cc3c(ccc(Cl)c3Cl)N=C2N1 [ANAGRELIDE],2.4
10,Nc1nc2nc[nH]c2c(=S)[nH]1 [THIOGUANINE],-0.7
11,OC[C@H]1O[C@@H](n2cnc3c2NC=NC[C@H]3O)C[C@@H]1O [PENTOSTATIN],-1.1
12,C[C@]12CC[C@@H]3c4ccc(OC(=O)N(CCCl)CCCl)cc4CC[C@H]3[C@@H]1CC[C@@H]2O [ESTRAMUSTINE],5.7
13,CCCCCOC(=O)Nc1nc(=O)n([C@@H]2O[C@H](C)[C@@H](O)[C@H]2O)cc1F [CAPECITABINE],0.4
14,O=C1c2c(O)ccc(O)c2C(=O)c2c(NCCNCCO)ccc(NCCNCCO)c21 [MITOXANTRONE],-3.1
15,O=NN(CCCl)C(=O)NC1CCCCC1 [LOMUSTINE],3
16,Clc1ccc(C(c2ccccc2Cl)C(Cl)Cl)cc1 (configuration not stated) [MITOTANE],6
17,Sc1ncnc2nc[nH]c12 [MERCAPTOPURINE ANHYDROUS],-0.4
18,Nc1ccn([C@@H]2O[C@H](CO)[C@@H](O)C2(F)F)c(=O)n1 [GEMCITABINE],-1.4
